The record followed here is patent US10668051B2, “Modulators of calcium release-activated calcium channel” (Rhizen Pharmaceuticals SA, priority 2009, dated 2020).

Counter-ions that a name gives are not always drawn.

The subject of the first assay is IL-2. The experiment in a line: Inhibition of cytokine release in Human Whole Blood: IL-2. The class given is cell-based. Particulars: Con A + PMA, 20 h, ELISA, read-out: IC 50 Human Whole Blood IL-2. As for the experimental part:
2. In Vitro Inhibition of Cytokine Release in Jurkat Cells, Human Whole Blood and Peripheral Blood Mononuclear Cells (PBMC).
Inhibition of cytokine IL-2, IL-4, IL-5 and TNF α was determined as described below. • a. Inhibition of IL-2 in Jurkat cells: Cells were incubated with desired concentrations of the inhibitor for 15 min. Cytokine release was induced by the addition of Concanavalin A (25 μg/ml)+Phorbol Myristate Acetate (50 ng/ml) for IL-2 & TNFα or with Phytohemagglutinin ([…]) for IL-4 & IL-5 and incubated at 37° C. in an atmosphere containing […]. Supernatant was collected after 20 h (IL-2 & TNFα) or 48 h (IL-4 & IL-5) for estimation of cytokines by ELISA. Data were analysed using GraphPad Prism. IC50 values for each compound were determined based on the percent inhibition due to the test compound compared to the control. • b. Inhibition of cytokine release in Human Whole Blood (HWB): Freshly collected HWB was diluted with RPMI medium (1:4.5) and added to a 96-well plate. Wells were incubated with desired concentrations of the inhibitor for 15 min. Cytokine release was induced by the addition of Concanavalin A (25 μg/ml)+Phorbol Myristate Acetate (50 ng/ml) for IL-2 & TNFα or with Phytohemagglutinin (5 μg/ml) for IL-4 & IL-5 and incubated at 37° C. in an atmosphere containing […]. Supernatant was collected after 20 h (IL-2 & TNFα) or 48 h (IL-4 & IL-5) for estimation of cytokines by ELISA. Data were analysed using GraphPad Prism. IC50 values for each compound were determined based on the percent inhibition due to the test compound compared to the control. • c. Inhibition of cytokine release in PBMC: PBMC from freshly collected HWB were isolated by density gradient using Histopaque and seeded in a 96-well plate. Cells were incubated with desired concentrations of the inhibitor for 15 min. Cytokine release was induced by the addition of Concanavalin A (25 μg/ml)+Phorbol Myristate Acetate (50 ng/ml) for IL-2 & TNFα or with Phytohemagglutinin (5 μg/ml) for IL-4 & IL-5 and incubated at 37° C. in an atmosphere containing […]. Supernatant was collected after 20 h (IL-2 & TNFα) or 48 h (IL-4 & IL-5) for estimation of cytokines by ELISA. Data were analysed using GraphPad Prism. IC50 values for each compound were determined based on the percent inhibition due to the test compound compared to the control.
In general terms: In an ELISA, binding on a coated surface is turned into a signal by an enzyme label.
In the case of `O=C(Nc1ccc(-n2nc(C(F)(F)F)cc2C2CC2)cc1)c1c(Cl)cncc1Cl` [Example 49, 3,5-dichloro-N-{4-[5-cyclopropyl-3-(trifluoromethyl)-1H-pyrazol-1-yl]phenyl}isonicotinamide], the IC50 amounted to 199 nM.

With `Cc1oncc1C(=O)Nc1ccc(-n2nc(C(F)(F)F)cc2C2CC2)cc1` [Example 56, N-{4-[5-cyclopropyl-3-(trifluoromethyl)-1H-pyrazol-1-yl]phenyl}-5-methylisoxazole-4-carboxamide], the IC50 came to 78.4 nM.

For the compound `O=C(Nc1ccc(-n2nc(C(F)(F)F)cc2C2CC2)nc1)c1cccnc1` [Example 111, N-{6-[5-cyclopropyl-3-(trifluoromethyl)-1H-pyrazol-1-yl]pyridin-3-yl}nicotinamide hydrochloride], the IC50 amounted to 82.8 nM.

For the next assay, the target named is CRAC channels (Homo sapiens (Human), UniProt Q96D31). The experiment in a line: In-vitro CRAC channel inhibition assay in Jurkat cells (thapsigargin-induced calcium influx). Format: cell-based.
Sequence of CRAC channels (Q96D31 whole entry): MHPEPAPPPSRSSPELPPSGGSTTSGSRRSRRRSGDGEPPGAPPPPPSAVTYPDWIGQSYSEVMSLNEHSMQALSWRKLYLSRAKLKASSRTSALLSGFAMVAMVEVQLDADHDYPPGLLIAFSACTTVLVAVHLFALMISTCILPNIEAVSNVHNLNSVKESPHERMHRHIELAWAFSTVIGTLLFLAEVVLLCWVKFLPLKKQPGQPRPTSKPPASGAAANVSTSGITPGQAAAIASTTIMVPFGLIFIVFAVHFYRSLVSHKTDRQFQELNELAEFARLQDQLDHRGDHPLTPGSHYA
Settings: not given
In a few lines: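 Jurkat cells given test compounds in Ca2+/Mg2+-free Hanks buffer for 15 min, then thapsigargin (1 μM final) for 15 min to deplete ER stores. IC50 from percent inhibition of thapsigargin-induced Ca2+ influx.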
In general, inhibition refers to the drop in the measured response relative to a control, in per cent. For `O=C(Nc1ccc(-n2nc(C(F)(F)F)cc2C2CC2)cc1)c1c(Cl)cncc1Cl` [Example 49, 3,5-dichloro-N-{4-[5-cyclopropyl-3-(trifluoromethyl)-1H-pyrazol-1-yl]phenyl}isonicotinamide], the inhibition at 1 µM worked out at 100%.

As for `Cc1oncc1C(=O)Nc1ccc(-n2nc(C(F)(F)F)cc2C2CC2)cc1` [Example 56, N-{4-[5-cyclopropyl-3-(trifluoromethyl)-1H-pyrazol-1-yl]phenyl}-5-methylisoxazole-4-carboxamide], the inhibition at 1 µM is 100%.

Consider `O=C(Nc1ccc(-n2nc(C(F)(F)F)cc2C2CC2)nc1)c1cccnc1` [Example 111, N-{6-[5-cyclopropyl-3-(trifluoromethyl)-1H-pyrazol-1-yl]pyridin-3-yl}nicotinamide hydrochloride], for which the inhibition at 1 µM was determined as 100%.

As to `O=C(Nc1ccc(-n2nc(C(F)(F)F)cc2C2CC2)nc1)c1ccncc1` [Example 113, N-{6-[5-cyclopropyl-3-(trifluoromethyl)-1H-pyrazol-1-yl]pyridin-3-yl}isonicotinamide hydrochloride], the inhibition at 1 µM was 100%.

On to `O=C(Nc1ccc(-n2nc(C(F)(F)F)cc2C2CC2)nc1)c1ccncc1F` [Example 114, N-{6-[5-cyclopropyl-3-(trifluoromethyl)-1H-pyrazol-1-yl]pyridin-3-yl}-3-fluoroisonicotinamide], for which the inhibition at 1 µM was 88.7%.

For the compound `O=C(Nc1ccc(-n2nc(C(F)(F)F)cc2C2CC2)nc1)c1c(Cl)cncc1Cl` [Example 115, 3,5-dichloro-N-{6-[5-cyclopropyl-3-(trifluoromethyl)-1H-pyrazol-1-yl]pyridin-3-yl}isonicotmamide], the inhibition at 1 µM was found to be 51.3%.

For `Cc1ncncc1C(=O)Nc1ccc(-n2nc(C(F)(F)F)cc2C2CC2)nc1` [Example 116, N-{6-[5-cyclopropyl-3-(trifluoromethyl)-1H-pyrazol-1-yl]pyridin-3-yl}-4-methylpyrimidine-5-carboxamide], the inhibition at 1 µM is 15.4%.

Turning to `O=C(Cc1ccccn1)Nc1ccc(-n2nc(C(F)(F)F)cc2C2CC2)nc1` [Example 117, N-{6-[5-cyclopropyl-3-(trifluoromethyl)-1H-pyrazol-1-yl]pyridin-3-yl}-2-(pyridin-2-yl)acetamide hydrochloride], the inhibition at 1 µM was found to be 0%.

Consider `O=C(Cc1ccncc1)Nc1ccc(-n2nc(C(F)(F)F)cc2C2CC2)nc1` [Example 118, N-{6-[5-cyclopropyl-3-(trifluoromethyl)-1H-pyrazol-1-yl]pyridin-3-yl}-2-(pyridin-4-yl)acetamide hydrochloride], for which the inhibition at 1 µM is 20.9%.

For `Cc1ncncc1C(=O)Nc1ccc(-n2nc(C(F)(F)F)c(Cl)c2C2CC2)c(F)c1` [Example 119, N-{4-[4-chloro-5-cyclopropyl-3-(trifluoromethyl)-1H-pyrazol-1-yl]-3-fluorophenyl}-4-methylpyrimidine-5-carboxamide], the inhibition at 1 µM was 40.5%.

As to `O=C(Nc1cccc(F)c1F)c1ccc(-n2nc(C(F)(F)F)cc2C2CC2)nc1` [Example 121, 6-[5-cyclopropyl-3-(trifluoromethyl)-1H-pyrazol-1-yl]-N-(2,3-difluorophenyl)nicotinamide], the inhibition at 1 µM was determined as 23.1%.

As to `O=C(Nc1c(F)cccc1F)c1ccc(-n2nc(C(F)(F)F)cc2C2CC2)nc1` [Example 122, 6-[5-cyclopropyl-3-(trifluoromethyl)-1H-pyrazol-1-yl]-N-(2,6-difluorophenyl) nicotinamide], the inhibition at 1 µM was determined as 100%.

In the case of `Cc1ncsc1C(=O)Nc1ccc(-n2nc(C(F)(F)F)c(Cl)c2C2CC2)nc1` [Example 123, N-{6-[4-chloro-5-cyclopropyl-3-trifluoromethyl-1H-pyrazol-1-yl]pyridin-3-yl}-4-methylthiazole-5-carboxamide], the inhibition at 1 µM is 31%.

Regarding `O=C(Nc1cnc(-n2nc(C(F)(F)F)cc2C2CC2)nc1)c1c(F)cccc1F` [Example 124, N-{2-[5-cyclopropyl-3-(trifluoromethyl)-1H-pyrazol-1-yl]pyrimidin-5-yl}-2,6-difluorobenzamide], the inhibition at 1 µM is 86.2%.

Consider `Cc1ncsc1C(=O)Nc1ccc(-n2nc(C(F)(F)F)cc2CF)cc1` [Example 125, N-{4-[5-(fluoromethyl)-3-(trifluoromethyl)-1H-pyrazol-1-yl]phenyl}-4-methylthiazole-5-carboxamide], for which the inhibition at 1 µM stood at 100%.

In the case of `Cc1ncsc1C(=O)Nc1ccc(-n2nc(C(F)(F)F)cc2C(F)F)cc1` [Example 126, N-{4-[5-(difluoromethyl)-3-(trifluoromethyl)-1H-pyrazol-1-yl]phenyl}-4-methyl thiazole-5-carboxamide], the inhibition at 1 µM stood at 100%.

For `O=C(Nc1ccc(-n2nc(C3CC3)cc2C2CC2)c(F)c1)c1c(Cl)cncc1Cl` [Example 127, 3,5-dichloro-N-[4-(3,5-dicyclopropyl-1H-pyrazol-1-yl)-3-fluorophenyl]isonicotinamide], the inhibition at 1 µM worked out at 66.3%.

With `O=C(Nc1c(F)cccc1Cl)c1ccc(-n2nc(C(F)(F)F)cc2C2CC2)c(F)c1` [Example 128, N-(2-chloro-6-fluorophenyl)-4-[5-cyclopropyl-3-(trifluoromethyl)-1H-pyrazol-1-yl]-3-fluorobenzamide], the inhibition at 1 µM was determined as 100%.

Consider `Cc1ncsc1C(=O)Nc1cnc(-n2nc(C(F)(F)F)cc2C2CC2)nc1` [Example 129, N-{2-[5-cyclopropyl-3-(trifluoromethyl)-1H-pyrazol-1-yl]pyrimidin-5-yl}-4-methyl thiazole-5-carboxamide], for which the inhibition at 1 µM was 28.3%.

Turning to `Cc1ncncc1C(=O)Nc1cc(F)c(-n2nc(C(F)(F)F)cc2C2CC2)c(F)c1` [Example 130, N-{4-[5-cyclopropyl-3-(trifluoromethyl)-1H-pyrazol-1-yl]-3,5-difluorophenyl}-4-methylpyrimidine-5-carboxamide], the inhibition at 1 µM turned out to be 5.31%.

As for `O=C(Nc1ccc(-n2nc(C(F)(F)F)cc2C2CC2)c(F)c1)C1(c2ccccc2)CCC1` [Example 131, N-{4-[5-cyclopropyl-3-(trifluoromethyl)-1H-pyrazol-1-yl]-3-fluorophenyl}-1-phenylcyclobutanecarboxamide], the inhibition at 1 µM was 0%.

As to `Cc1ncoc1C(=O)Nc1ccc(-n2nc(C(F)(F)F)cc2C2CC2)c(F)c1` [Example 132, N-{4-[5-cyclopropyl-3-(trifluoromethyl)-1H-pyrazol-1-yl]-3-fluorophenyl}-4-methyloxazole-5-carboxamide], the inhibition at 1 µM came to 85.2%.

Regarding `Cc1ncncc1C(=O)Nc1cnc(-n2nc(C(F)(F)F)cc2C2CC2)nc1` [Example 133, N-{2-[5-cyclopropyl-3-(trifluoromethyl)-1H-pyrazol-1-yl]pyrimidin-5-yl}-4-methylpyrimidine-5-carboxamide], the inhibition at 1 µM stood at 5.62%.

For the compound `Cc1ncncc1NC(=O)c1ccc(-n2nc(C(F)(F)F)cc2C2CC2)c(F)c1` [Example 134, 4-[5-cyclopropyl-3-(trifluoromethyl)-1H-pyrazol-1-yl]-3-fluoro-N-(4-methylpyrimidin-5-yl)benzamide], the inhibition at 1 µM is 18.6%.

For “N-{4-[3-cyclopropyl-5-(difluoromethyl)-1H-pyrazol-1-yl]-3-fluorophenyl}-2,6-difluorobenzamide and N-{4-[5-cyclopropyl-3-(difluoromethyl)-1H-pyrazol-1-yl]-3-fluorophenyl}-2,6-difluorobenzamide [Example 135]”, the “% inhibition (1 uM)” value stood at 100%.
